For data set [1] the following is noted: literature; cited from earlier work.
Data set [2] has as its system primary mammary tumor of a patient. The data set can be described thus: Mammary carcinoma xenograft. Format: in vivo, NMRI (nude) mice.
For data set [3], the system named is human derived breast cancer model with CD138 IHC score 2-3. The data set can be described thus: Breast cancer model, CD138 IHC score 2-3. The format is in vivo, NMRI nude mice. The settings on record: 10 mg/kg. The source says:
The results are shown in terms of the effect on the mean relative tumor volume in the model relative to an intravenous administration of PBS. For the calculation of the median relative tumor volume on day, see FIG. 33.

Data set [4] has as its system human derived breast cancer model with CD138 IHC score 1-2. The data set can be described thus: Breast cancer model, CD138 IHC score 1-2. The format is in vivo, NMRI nude mice. The following applies: 10 mg/kg. The source says:
No difference in the treatment regimens was observed. The results are shown in terms of the effect on the mean relative tumor volume in the model relative to an intravenous administration of PBS. For the calculation of the median relative tumor volume on day, see FIG. 33.

A further data set has as its system primary pancreatic tumor. The data set can be described thus: Example 9 xenograft (FIG. 38). Format: in vivo, NMRI (nude) mice. The following applies: 10 mg/kg; treatment period and treatment free period. The source says:
The results are shown in terms of the effect on the mean relative tumor volume.

Another data set concerns RPMI 8226. The data set can be described thus: Synergy determination in cell lines (Chou and Talalay). The settings on record: drug in combination with BT062. Format: cell-based. Here is the method:
Combination studies in xenograph mouse models were preceded by studies in cell lines. […] Here, IC50 values for the cytotoxic effects for each drug and each cell line are calculated, and then IC50 ratios for each drug pair. The cells were then exposed to dilution series of either these drug mixtures, or the drugs alone. Experimental data were analyzed using the CompuSyn software (ComboSyn, Inc., Paramus, N.J.). Combination Indexes (CI) for each independent experiment were calculated and reported separately. In the analysis, CI less than 1, equal to 1 and more than 1 indicates synergy, additivity and antagonism, respectively. According to the classification of T. C.

For the next data set, the system named is CD138 expression. The data set can be described thus: Effect of lenalidomide on CD138 expressing cells in vitro. The settings on record: different cell lines, 24 h incubation (FIG. 32).
Data set [5] concerns MOLP8 multiple myeloma cells. The data set can be described thus: MOLP8 xenograft, combination BT062 and VELCADE. The format is in vivo, mice. An excerpt: The ACTIVITY RATING is another measurement for the effects of a combination. This rating is based on the Log10 cell kill
where (T-C) or tumor growth delay, is the median time in days required for the treatment group (T) and the control group (C) tumours, to reach a predetermined size (600 mm^3).

Data set [6] can be described thus: Clinical trials of other immunoconjugates (literature). The format is in vivo, human. The following applies: assuming 70 kg and 1.9 m^2 body surface area.
The conditions of data set [7]: cited from earlier work.

The text below walks through data of patent US20190117770A1, “USES OF IMMUNOCONJUGATES TARGETING CD138” (Biotest AG, priority 2011, published 2019).

As to `COc1cc2cc(c1Cl)N(C)C(=O)C[C@H](OC(=O)[C@H](C)N(C)C(=O)CCS)[C@]1(C)O[C@H]1[C@H](C)[C@@H]1C[C@@](O)(NC(=O)O1)[C@H](OC)/C=C/C=C(\C)C2` [DM1, N^2-deacetyl-N^2-(3-mercapto-1-oxopropyl)-maytansine], the “cytotoxicity, fold more cytotoxic than maytansine” value in data set [1] is recorded as 3- to 10 fold.
For the molecule `COc1cc2cc(c1Cl)N(C)C(=O)C[C@H](OC(=O)[C@H](C)N(C)C(=O)CCC(C)(C)S)[C@]1(C)O[C@H]1[C@H](C)[C@@H]1C[C@@](O)(NC(=O)O1)[C@H](OC)/C=C/C=C(\C)C2` [DM4, N^2′-deacetyl-N^2′-(4-methyl-4-mercapto-1-oxopentyl)-maytansine, reference compound], the tumor response result in data set [2] (amount corresponding to that in 4 mg BT062) is “did not result in tumor response”.
On to `CC(=O)O[C@@]12CO[C@@H]1C[C@H](O)[C@@]1(C)C(=O)[C@H](O)C3=C(C)[C@@H](OC(=O)[C@H](O)[C@@H](NC(=O)OC(C)(C)C)c4ccccc4)C[C@@](O)([C@@H](OC(=O)c4ccccc4)[C@H]21)C3(C)C` [Docetaxel, reference compound], for which the tumor response entry in data set [3] was “response”; in data set [4] it was “did not respond”; with primary pancreatic tumor it was “complete remission”.
Take `Nc1cccc2c1CN(C1CCC(=O)NC1=O)C2=O` (centres unmarked) [Lenalidomide]: in the data set on RPMI 8226, the “Estimate of synergistic result” value is reported as “Synergistic”. Also, the CD138 expression result in the data set on CD138 expression is on record as “concentration dependent CD138 decrease”.
`CC(=O)O[C@H]1C(=O)[C@@]2(C)[C@H]([C@H](OC(=O)c3ccccc3)[C@]3(O)C[C@H](OC(=O)[C@H](O)[C@@H](NC(=O)c4ccccc4)c4ccccc4)C(C)=C1C3(C)C)[C@]1(OC(C)=O)CO[C@@H]1C[C@@H]2O` [Taxol, Paclitaxel, reference compound]: in data set [2] (10 mg/kg), the tumor response result is on record as “only a minor tumor growth delay”.
As for `CC(C)C[C@H](NC(=O)[C@H](Cc1ccccc1)NC(=O)c1cnccn1)B(O)O` [Velcade, bortezomib, reference compound], in data set [5] (VELCADE treatment alone (FIG. 31)), the “effect on the tumor volume” value is “no effect”. In data set [5] (Velcade 1 mg/kg), the “Tumor free survivors day 67” value is listed as 0/6 and the log cell kill came out at 0.0.
In the case of `COc1cc2cc(c1Cl)N(C)C(=O)C[C@H](OC(=O)[C@H](C)N(C)C(C)=O)[C@]1(C)O[C@H]1[C@H](C)[C@@H]1C[C@@](O)(NC(=O)O1)[C@H](OC)/C=C/C=C(\C)C2` [maytansine], in data set [1], the “cytotoxicity, fold higher than Vinca alkaloids or taxol” value is listed as 200-1000 fold.
Regarding SAR3419, the “Corresponds to total concentration of” value in [6] turned out to be 110 mg. The “patients with a response” value in data set [7] (22 patients at the MTD (55 mg/m^2)) is 36%. Further, in [7] (38 patients at 20 mg/m^2 or higher, weekly, B-cell NHL), the “patients achieving an objective response” value is reported as 32%. For the same molecule, in data set [7] (literature), the “MTD, single administration every three weeks” value was 160 mg/m^2.
Consider SGN-35, for which the “Corresponds to total concentration of” value in data set [6] turned out to be 84 mg. In data set [7] (literature), the “Once weekly regimen, dose administered” value is “Up to 1.2 mg/kg”.

B1: SGN-75: anti-CD70; MMAF (SEATTLE GENETICS) (conjugate, chains of the INN, looked up)
VH: QVQLVQSGAEVKKPGASVKVSCKASGYTFTNYGMNWVRQAPGQGLKWMGWINTYTGEPTYADAFKGRVTMTRDTSISTAYMELSRLRSDDTAVYYCARDYGDYGMDYWGQGTTVTVSS
VL: DIVMTQSPDSLAVSLGERATINCRASKSVSTSGYSFMHWYQQKPGQPPKLLIYLASNLESGVPDRFSGSGSGTDFTLTISSLQAEDVAVYYCQHSREVPWTFGQGTKVEIK
modifications: MMAF conjugate
Consider B1, for which the “MTD, once weekly regimen” value in [7] (literature) is “not been reached)”.

B2: IMGN242: analog of cantuzumab mertansine, huC242-DM4 (conjugate, chains of the INN, looked up)
VH: QVQLVQSGAEVKKPGETVKISCKASDYTFTYYGMNWVKQAPGQGLKWMGWIDTTTGEPTYAQKFQGRIAFSLETSASTAYLQIKSLKSEDTATYFCARRGPYNWYFDVWGQGTTVTVSS
VL: DIVMTQSPLSVPVTPGEPVSISCRSSKSLLHSNGNTYLYWFLQRPGQSPQLLIYRMSNLVSGVPDRFSGSGSGTAFTLRISRVEAEDVGVYYCLQHLEYPFTFGPGTKLELK
modifications: DM4 maytansinoid conjugate
Consider B2, for which the “subjects experiencing dose-limiting toxicity” value in data set [7] (223 mg/m^2 once every 3 weeks, second cycle) was 2 of 6.
